Measured values: patent publication US9809623B2, “α4β7 peptide monomer and dimer antagonists” (Protagonist Therapeutics, Inc., priority 2014, dated 2017)
Values joined by “and” are separate entries in the source; they are usually repeats but may differ in a detail not shown here. Identical values can stand only once. Like-named read-outs stand apart in the source and are kept apart here. Numbered stars: 1 amine (or outer) side, 2 acyl side, 3 side chain; on linkers, the order of the positions; unused ones are H or OH. Bridge positions count the residues as written; N and C are the ends. Square brackets hold non-standard residues; d marks the D form. Peptide text beside a SMILES is read from it. I, II: the chains in the order shown. ξ: configuration not given here. Phe(4-tBu) = CC(C)(C)c1ccc(C[C@H](N)C(=O)O)cc1; 2Nal = N[C@@H](Cc1ccc2ccccc2c1)C(=O)O; Diglycolyl = O=C(COCC(=O)[*:2])[*:1]; NMeR = CN[C@@H](CCCNC(=N)N)C(=O)O; β3hE = N[C@@H](CCC(=O)O)CC(=O)O; Thr(3ξ) = CC(O)[C@H](N)C(=O)O; NMeK = CN[C@@H](CCCCN)C(=O)O; Pen = CC(C)(S)[C@H](N)C(=O)O

Experiments:
[1] = biological target: T1, rh integrin α4β7 (Homo sapiens, UniProt P13612+P26010); experiment: α4β7-MAdCAM Competition ELISA; format: binding
T1 construct: purchased R&D Systems 5397-A30
In short: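 Recombinant human α4β7 was captured on nickel plates at 800 ng/well. Peptide in 3-fold serial dilution (final top 10 μM) competed with MAdCAM-1 (final 10 nM) for 1 h at room temperature in 50 mM Tris pH 7.6, 150 mM NaCl, 1 mM MnCl2 or MgCl2. Bound MAdCAM-1 was detected with anti-human IgG1-HRP/TMB at A450.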

[2] = biological target: T2, α4β1 (Homo sapiens, UniProt P05556+P13612, DEL729-798); experiment: α4β1-VCAM Competition ELISA; format: binding
T2 construct: purchased R&D Systems 5668-A4
In short: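 Recombinant α4β1 (60 nM final) competed with serially diluted peptides (top final 100 μM) for VCAM-1 Fc coated at 400 ng/well, in Tris pH 7.6 with 1 mM MnCl2 or MgCl2, for 2 h at 37 °C. Bound integrin was detected with anti-CD49d 9F10 plus HRP anti-mouse IgG, using TMB read at 450 nm.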

[3] = biological target: α4β7 (Homo sapiens, UniProt P13612+P26010); experiment: α4β7-MAdCAM Cell Adhesion Assay (RPMI 8866 human cells); format: cell-based; set-up: host or cells: RPMI 8866 human B lymphoblastoid cells
In short: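 Washed RPMI 8866 cells (200,000/well) in DMEM with 0.1% BSA, 10 mM HEPES pH 7, 1 mM MnCl2 adhered to rh MAdCAM-1/Fc-coated wells with serially diluted peptides, 30-45 min at 37 °C. After three washes, bound cells quantified by MTT, A570, cell-free background subtracted for dose response.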

[4] = Table 4-B, read-out: ELISA α4β7 IC50
[5] = Table 4-B, read-out: ELISA_α4β1 IC50
[6] = Table 4-B, read-out: Cell Adhesion α4β7 IC50

T1 sequence (P13612 34-977 limits assumed): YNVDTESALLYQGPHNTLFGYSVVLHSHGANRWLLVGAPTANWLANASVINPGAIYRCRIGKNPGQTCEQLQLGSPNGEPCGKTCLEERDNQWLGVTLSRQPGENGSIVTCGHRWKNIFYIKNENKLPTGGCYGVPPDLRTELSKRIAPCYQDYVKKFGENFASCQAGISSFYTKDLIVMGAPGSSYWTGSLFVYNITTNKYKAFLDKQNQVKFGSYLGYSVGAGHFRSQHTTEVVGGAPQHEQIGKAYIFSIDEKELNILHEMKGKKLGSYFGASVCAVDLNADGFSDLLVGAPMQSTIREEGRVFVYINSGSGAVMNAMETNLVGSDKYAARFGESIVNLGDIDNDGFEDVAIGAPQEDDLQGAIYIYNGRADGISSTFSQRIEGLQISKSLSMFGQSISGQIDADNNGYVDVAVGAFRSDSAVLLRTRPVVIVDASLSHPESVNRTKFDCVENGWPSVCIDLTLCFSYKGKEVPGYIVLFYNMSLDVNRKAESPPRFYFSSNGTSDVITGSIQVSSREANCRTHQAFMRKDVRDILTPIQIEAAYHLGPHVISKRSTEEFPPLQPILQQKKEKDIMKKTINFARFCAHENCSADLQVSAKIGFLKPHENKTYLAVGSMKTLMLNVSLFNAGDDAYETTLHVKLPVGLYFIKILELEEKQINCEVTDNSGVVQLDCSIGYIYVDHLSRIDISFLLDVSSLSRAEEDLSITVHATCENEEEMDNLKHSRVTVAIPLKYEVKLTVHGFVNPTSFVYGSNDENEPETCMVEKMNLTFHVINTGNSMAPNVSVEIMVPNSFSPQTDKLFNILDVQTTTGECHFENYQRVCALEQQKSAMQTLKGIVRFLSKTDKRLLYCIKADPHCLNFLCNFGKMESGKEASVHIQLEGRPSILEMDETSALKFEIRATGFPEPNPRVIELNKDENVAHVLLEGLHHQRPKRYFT
T1 sequence (P26010 20-723 limits assumed): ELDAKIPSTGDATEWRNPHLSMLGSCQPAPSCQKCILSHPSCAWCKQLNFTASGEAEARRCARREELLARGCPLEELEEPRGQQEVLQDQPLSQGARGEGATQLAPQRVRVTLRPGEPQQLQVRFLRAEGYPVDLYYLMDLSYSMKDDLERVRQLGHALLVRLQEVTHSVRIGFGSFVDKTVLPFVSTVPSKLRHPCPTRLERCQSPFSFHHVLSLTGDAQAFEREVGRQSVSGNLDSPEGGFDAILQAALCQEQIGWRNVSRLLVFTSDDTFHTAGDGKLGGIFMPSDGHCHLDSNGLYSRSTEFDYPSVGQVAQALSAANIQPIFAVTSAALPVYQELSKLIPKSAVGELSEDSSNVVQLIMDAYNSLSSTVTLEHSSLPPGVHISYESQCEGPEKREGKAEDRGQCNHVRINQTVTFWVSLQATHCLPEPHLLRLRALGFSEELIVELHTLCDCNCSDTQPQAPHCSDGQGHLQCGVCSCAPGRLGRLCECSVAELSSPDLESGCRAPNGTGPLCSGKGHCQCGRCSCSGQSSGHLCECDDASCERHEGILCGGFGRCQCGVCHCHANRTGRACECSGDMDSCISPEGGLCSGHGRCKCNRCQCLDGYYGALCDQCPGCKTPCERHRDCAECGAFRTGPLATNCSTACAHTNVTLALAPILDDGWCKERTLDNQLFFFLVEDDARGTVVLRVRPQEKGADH
T2 sequence (P13612 34-977 limits assumed, stated change not applied): as the sequence (P13612 34-977 limits assumed) above
T2 sequence (P05556 21-728 limits assumed, stated change not applied): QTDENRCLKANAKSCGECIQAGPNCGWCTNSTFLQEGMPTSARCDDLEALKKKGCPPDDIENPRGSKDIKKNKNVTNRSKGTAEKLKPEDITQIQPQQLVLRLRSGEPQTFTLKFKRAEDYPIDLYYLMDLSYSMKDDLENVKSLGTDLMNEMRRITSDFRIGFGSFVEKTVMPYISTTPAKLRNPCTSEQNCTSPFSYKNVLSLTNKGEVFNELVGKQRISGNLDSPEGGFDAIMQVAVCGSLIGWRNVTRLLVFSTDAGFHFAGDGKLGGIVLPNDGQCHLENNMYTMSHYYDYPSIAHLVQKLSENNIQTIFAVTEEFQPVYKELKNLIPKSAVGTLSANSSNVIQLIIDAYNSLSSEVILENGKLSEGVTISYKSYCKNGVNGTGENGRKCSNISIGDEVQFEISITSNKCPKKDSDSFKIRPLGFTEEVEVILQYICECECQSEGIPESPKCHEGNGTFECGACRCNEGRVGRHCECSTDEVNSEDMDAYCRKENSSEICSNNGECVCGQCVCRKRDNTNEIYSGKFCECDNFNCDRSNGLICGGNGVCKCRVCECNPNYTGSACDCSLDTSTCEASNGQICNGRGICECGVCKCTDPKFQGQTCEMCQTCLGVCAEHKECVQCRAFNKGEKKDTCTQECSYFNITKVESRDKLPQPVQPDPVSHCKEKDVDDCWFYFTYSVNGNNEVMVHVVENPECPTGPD
Sequence of α4β7 (P13612 34-1032): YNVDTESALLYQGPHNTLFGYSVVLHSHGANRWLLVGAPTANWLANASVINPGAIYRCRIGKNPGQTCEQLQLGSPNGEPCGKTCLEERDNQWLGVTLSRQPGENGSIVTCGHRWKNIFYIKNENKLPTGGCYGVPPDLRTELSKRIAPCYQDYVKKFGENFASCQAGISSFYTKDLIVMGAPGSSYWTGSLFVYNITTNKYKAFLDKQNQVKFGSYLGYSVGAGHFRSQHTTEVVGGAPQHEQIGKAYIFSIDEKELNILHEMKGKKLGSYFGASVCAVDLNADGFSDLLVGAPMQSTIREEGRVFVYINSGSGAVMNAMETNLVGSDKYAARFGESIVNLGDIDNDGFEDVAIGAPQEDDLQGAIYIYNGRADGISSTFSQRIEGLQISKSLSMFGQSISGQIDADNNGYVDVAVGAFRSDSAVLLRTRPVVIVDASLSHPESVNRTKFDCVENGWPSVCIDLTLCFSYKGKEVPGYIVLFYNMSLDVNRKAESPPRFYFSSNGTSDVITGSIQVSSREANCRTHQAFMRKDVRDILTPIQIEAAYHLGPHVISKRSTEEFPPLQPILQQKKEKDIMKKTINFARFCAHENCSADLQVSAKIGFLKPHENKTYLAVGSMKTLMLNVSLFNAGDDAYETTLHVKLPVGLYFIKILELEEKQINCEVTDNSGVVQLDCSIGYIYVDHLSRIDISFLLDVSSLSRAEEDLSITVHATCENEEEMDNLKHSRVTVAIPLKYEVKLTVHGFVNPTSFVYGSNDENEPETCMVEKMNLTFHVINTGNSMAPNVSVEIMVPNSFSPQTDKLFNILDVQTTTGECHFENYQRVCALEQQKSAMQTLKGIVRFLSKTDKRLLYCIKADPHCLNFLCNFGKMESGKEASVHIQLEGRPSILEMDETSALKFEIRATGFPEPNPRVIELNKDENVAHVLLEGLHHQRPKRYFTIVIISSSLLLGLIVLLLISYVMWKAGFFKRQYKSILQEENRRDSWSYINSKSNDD
Sequence of α4β7 (P26010 20-798): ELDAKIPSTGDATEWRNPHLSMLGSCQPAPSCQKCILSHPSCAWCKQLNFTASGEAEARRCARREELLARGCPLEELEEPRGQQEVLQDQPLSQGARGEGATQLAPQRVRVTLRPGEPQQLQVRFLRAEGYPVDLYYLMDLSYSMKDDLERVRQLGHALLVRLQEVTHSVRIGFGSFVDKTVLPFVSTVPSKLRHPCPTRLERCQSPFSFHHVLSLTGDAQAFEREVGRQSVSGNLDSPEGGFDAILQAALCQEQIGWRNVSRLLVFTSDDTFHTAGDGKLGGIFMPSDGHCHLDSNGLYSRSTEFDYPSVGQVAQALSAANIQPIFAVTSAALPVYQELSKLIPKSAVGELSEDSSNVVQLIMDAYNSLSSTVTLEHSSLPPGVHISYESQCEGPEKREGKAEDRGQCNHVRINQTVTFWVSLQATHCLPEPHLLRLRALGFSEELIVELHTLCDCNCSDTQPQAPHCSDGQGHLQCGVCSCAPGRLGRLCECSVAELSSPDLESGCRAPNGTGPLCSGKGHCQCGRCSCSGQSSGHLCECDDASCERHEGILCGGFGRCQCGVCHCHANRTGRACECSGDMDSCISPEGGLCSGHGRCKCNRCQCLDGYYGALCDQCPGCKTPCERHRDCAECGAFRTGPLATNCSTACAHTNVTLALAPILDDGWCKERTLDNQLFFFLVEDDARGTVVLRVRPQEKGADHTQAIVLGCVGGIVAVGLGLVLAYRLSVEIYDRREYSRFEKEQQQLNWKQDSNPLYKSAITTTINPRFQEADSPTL

CC(=O)N[C@@H]1C(=O)N(C)[C@@H](CCCNC(=N)N)C(=O)N[C@@H](CO)C(=O)N[C@@H](CC(=O)O)C(=O)N[C@@H]([C@@H](C)O)C(=O)N[C@@H](CC(C)C)C(=O)N[C@H](C(=O)N[C@@H](Cc2c[nH]c3ccccc23)C(=O)N[C@@H](CCC(=O)O)C(=O)N(C)[C@@H](CCCCNC(=O)COCC(=O)NCCCC[C@@H](C(N)=O)N(C)C(=O)[C@H](CCC(=O)O)NC(=O)[C@H](Cc2c[nH]c3ccccc23)NC(=O)[C@H]2NC(=O)[C@H](CC(C)C)NC(=O)[C@H]([C@@H](C)O)NC(=O)[C@H](CC(=O)O)NC(=O)[C@H](CO)NC(=O)[C@H](CCCNC(=N)N)N(C)C(=O)[C@@H](NC(C)=O)C(C)(C)SSC2(C)C)C(N)=O)C(C)(C)SSC1(C)C [compound 215, [Ac-Pen-(N-Me-Arg)-Ser-Asp-Thr-Leu-Pen-Trp-Glu-(N-Me-Lys)-NH2]2-DIG] (I: Ac-[Pen][NMeR]SDTL[Pen]WE[NMeK]-NH2 / II: Ac-[Pen][NMeR]SDTL[Pen]WE[NMeK]-NH2; disulfide I:1-I:7, II:1-II:7 (inferred); linker I:10-II:10 via Diglycolyl (inferred))
IC50 [1, 4]: 2.2 nM | IC50 [2, 5]: 270 nM | IC50 [3, 6]: 3 nM

CC(=O)N[C@H]1CSSC[C@@H](C(=O)NCC(=O)N[C@@H](CCC(=O)O)C(=O)N[C@@H](CCCCN)C(=O)O)NC(=O)[C@H](CC(C)C)NC(=O)[C@H]([C@@H](C)O)NC(=O)[C@H](CC(=O)O)NC(=O)[C@H](CO)NC(=O)[C@H](CCCNC(=N)N)N(C)C1=O [compound 199, Ac-C-N-Me-R-S-D-T-L-C-G-E-K-OH] (Ac-C[NMeR]SDTLCGEK-OH; disulfide 1-7)
IC50 [1, 4]: 58 nM | IC50 [2, 5]: > 100000 nM | IC50 [3, 6]: 4690 nM

CC(=O)N[C@H]1CSSC(C)(C)[C@@H](C(=O)N[C@@H](CCC(=O)O)C(=O)N[C@H](CCCCNC(=O)COCC(=O)NCCCC[C@@H](NC(=O)[C@H](CCC(=O)O)NC(=O)[C@H]2NC(=O)[C@H](CC(C)C)NC(=O)[C@H]([C@@H](C)O)NC(=O)[C@H](CC(=O)O)NC(=O)[C@H](CO)NC(=O)[C@H](CCCNC(=N)N)N(C)C(=O)[C@@H](NC(C)=O)CSSC2(C)C)C(N)=O)C(N)=O)NC(=O)[C@H](CC(C)C)NC(=O)[C@H]([C@@H](C)O)NC(=O)[C@H](CC(=O)O)NC(=O)[C@H](CO)NC(=O)[C@H](CCCNC(=N)N)N(C)C1=O [compound 205, (Ac-C-N-Me-R-S-D-T-L-Pen-E-k-NH2)2-DIG] (I: Ac-C[NMeR]SDTL[Pen]E[dK]-NH2 / II: Ac-C[NMeR]SDTL[Pen]E[dK]-NH2; disulfide I:1-I:7, II:1-II:7 (inferred); linker I:9-II:9 via Diglycolyl (inferred))
IC50 [1, 4]: 2.4 nM | IC50 [2, 5]: 444 nM | IC50 [3, 6]: 26 nM

CC(=O)N[C@@H]1C(=O)N(C)[C@@H](CCCNC(=N)N)C(=O)N[C@@H](CO)C(=O)N[C@@H](CC(=O)O)C(=O)N[C@@H]([C@@H](C)O)C(=O)N[C@@H](CC(C)C)C(=O)N[C@H](C(=O)N[C@@H](Cc2ccc(C(C)(C)C)cc2)C(=O)N[C@@H](CCC(=O)O)CC(=O)N[C@H](CCCCNC(=O)COCC(=O)NCCCC[C@@H](NC(=O)C[C@H](CCC(=O)O)NC(=O)[C@H](Cc2ccc(C(C)(C)C)cc2)NC(=O)[C@H]2NC(=O)[C@H](CC(C)C)NC(=O)[C@H]([C@@H](C)O)NC(=O)[C@H](CC(=O)O)NC(=O)[C@H](CO)NC(=O)[C@H](CCCNC(=N)N)N(C)C(=O)[C@@H](NC(C)=O)C(C)(C)SSC2(C)C)C(N)=O)C(N)=O)C(C)(C)SSC1(C)C [compound 132] (I: Ac-[Pen][NMeR]SDTL[Pen][Phe(4-tBu)][β3hE][dK]-NH2 / II: Ac-[Pen][NMeR]SDTL[Pen][Phe(4-tBu)][β3hE][dK]-NH2; disulfide I:1-I:7, II:1-II:7; linker I:10-II:10 via Diglycolyl)
IC50 ([1]; Table 3-B, Potency (α4β7), range classes, read-out: α4β7 ELISA IC50): < 10 nM | IC50 ([2]; Table 3-B, Selectivity (α4β1), range classes, read-out: α4β1 ELISA IC50): 100 to 500 nM and 500 to 1000 nM | IC50 ([3]; Table 3-B, Potency (α4β7), range classes, read-out: α4β7 cell (Hu) IC50): < 10 nM

CC(=O)N[C@@H]1C(=O)N(C)[C@@H](CCCNC(=N)N)C(=O)N[C@@H](CO)C(=O)N[C@@H](CC(=O)O)C(=O)N[C@@H](C(C)O)C(=O)N[C@@H](CC(C)C)C(=O)N[C@H](C(=O)N[C@@H](Cc2ccc(C(C)(C)C)cc2)C(=O)N[C@@H](CCC(=O)O)CC(=O)N[C@H](CCCCNC(=O)COCC(=O)NCCCC[C@@H](NC(=O)C[C@H](CCC(=O)O)NC(=O)[C@H](Cc2ccc(C(C)(C)C)cc2)NC(=O)[C@H]2NC(=O)[C@H](CC(C)C)NC(=O)[C@H](C(C)O)NC(=O)[C@H](CC(=O)O)NC(=O)[C@H](CO)NC(=O)[C@H](CCCNC(=N)N)N(C)C(=O)[C@@H](NC(C)=O)C(C)(C)SSC2(C)C)C(N)=O)C(N)=O)C(C)(C)SSC1(C)C (stereo partly drawn) [Peptide X, [Ac-Pen-(N-Me-Arg)-Ser-Asp-Thr-Leu-Pen-(Phe(4-tBu))-(β-homoGlu)-(D-Lys)]2-DIG] (I: Ac-[Pen][NMeR]SD[Thr(3ξ)]L[Pen][Phe(4-tBu)][β3hE][dK]-NH2 / II: Ac-[Pen][NMeR]SD[Thr(3ξ)]L[Pen][Phe(4-tBu)][β3hE][dK]-NH2; disulfide I:1-I:7, II:1-II:7; linker I:10-II:10 via Diglycolyl)
IC50 ([1]; 1 mM Mg^2+ binding conditions, read-out: IC50 for α4β7, competition ELISA): 3 nM | IC50 ([2]; 1 mM Mg^2+ binding conditions, read-out: IC50 for α4β1, competition ELISA): > 10000 nM | IC50 ([2]; b977, second statement, conditions not stated, read-out: IC50 for α4β1): > 100000 nM | IC50 ([3]; human B cell lymphoblastoid RPMI8866, read-out: IC50 for blocking adhesion of RPMI8866 cell line to MAdCAM-1): 0.72 nM

CC(=O)N[C@@H]1C(=O)N(C)[C@@H](CCCNC(=N)N)C(=O)N[C@@H](CO)C(=O)N[C@@H](CC(=O)O)C(=O)N[C@@H]([C@@H](C)O)C(=O)N[C@@H](CC(C)C)C(=O)N[C@H](C(=O)N[C@@H](Cc2c[nH]c3ccccc23)C(=O)N[C@@H](CCC(=O)O)C(=O)N[C@H](CCCCNC(=O)COCC(=O)NCCCC[C@@H](NC(=O)[C@H](CCC(=O)O)NC(=O)[C@H](Cc2c[nH]c3ccccc23)NC(=O)[C@H]2NC(=O)[C@H](CC(C)C)NC(=O)[C@H]([C@@H](C)O)NC(=O)[C@H](CC(=O)O)NC(=O)[C@H](CO)NC(=O)[C@H](CCCNC(=N)N)N(C)C(=O)[C@@H](NC(C)=O)C(C)(C)SSC2(C)C)C(N)=O)C(N)=O)C(C)(C)SSC1(C)C [compound 217, (Ac-Pen-N-Me-R-S-D-T-L-Pen-W-E-k-NH2)2-DIG] (I: Ac-[Pen][NMeR]SDTL[Pen]WE[dK]-NH2 / II: Ac-[Pen][NMeR]SDTL[Pen]WE[dK]-NH2; disulfide I:1-I:7, II:1-II:7 (inferred); linker I:10-II:10 via Diglycolyl (inferred))
IC50 [1, 4]: 2.3 nM | IC50 [2, 5]: 315 nM | IC50 [3, 6]: 3.2 nM

CC(=O)N[C@@H]1C(=O)N(C)[C@@H](CCCNC(=N)N)C(=O)N[C@@H](CO)C(=O)N[C@@H](CC(=O)O)C(=O)N[C@@H]([C@@H](C)O)C(=O)N[C@@H](CC(C)C)C(=O)N[C@H](C(=O)N[C@@H](Cc2c[nH]c3ccccc23)C(=O)N[C@H](CCCCN)C(N)=O)C(C)(C)SSC1(C)C [compound 208, Ac-Pen-N-Me-R-S-D-T-L-Pen-W-k-NH2] (Ac-[Pen][NMeR]SDTL[Pen]W[dK]-NH2; disulfide 1-7)
IC50 [1, 4]: 30.5 nM | IC50 [3, 6]: 412 nM

CC(=O)N[C@@H]1C(=O)N(C)[C@@H](CCCNC(=N)N)C(=O)N[C@@H](CO)C(=O)N[C@@H](CC(=O)O)C(=O)N[C@@H]([C@@H](C)O)C(=O)N[C@@H](CC(C)C)C(=O)N[C@H](C(=O)N[C@@H](Cc2ccc3ccccc3c2)C(=O)N[C@@H](CCC(=O)O)C(=O)N[C@H](CCCCN)C(N)=O)C(C)(C)SSC1(C)C [compound 210, Ac-Pen-N-Me-R-S-D-T-L-Pen-2-Nal-E-k-NH2] (Ac-[Pen][NMeR]SDTL[Pen][2Nal]E[dK]-NH2; disulfide 1-7)
IC50 [1, 4]: 11 nM | IC50 [2, 5]: 200 nM

CC(=O)N[C@@H]1C(=O)N[C@@H](CCCNC(=N)N)C(=O)N[C@@H](CO)C(=O)N[C@@H](CC(=O)O)C(=O)N[C@@H]([C@@H](C)O)C(=O)N[C@@H](CC(C)C)C(=O)N[C@H](C(=O)N[C@H](CCCCNC(=O)COCC(=O)NCCCC[C@@H](NC(=O)[C@@H]2CSSC(C)(C)[C@H](NC(C)=O)C(=O)N[C@@H](CCCNC(=N)N)C(=O)N[C@@H](CO)C(=O)N[C@@H](CC(=O)O)C(=O)N[C@@H]([C@@H](C)O)C(=O)N[C@@H](CC(C)C)C(=O)N2)C(N)=O)C(N)=O)CSSC1(C)C [compound 207, (Ac-Pen-R-S-D-T-L-C-k-NH2)2-DIG] (I: Ac-[Pen]RSDTLC[dK]-NH2 / II: Ac-[Pen]RSDTLC[dK]-NH2; disulfide I:1-I:7, II:1-II:7 (inferred); linker I:8-II:8 via Diglycolyl (inferred))
IC50 [1, 4]: 26 nM | IC50 [3, 6]: 49 nM
